Calls of active or inactive are those of the source. The calls are words filed in the database; no cut-off is given here.
Columns and labels:
Kir3.1/Kir3.2 [1] = molecular target: T1, Kir3.1/Kir3.2 (Homo sapiens, UniProt P48051+P48549); assay: Inhibition of GIRK1/2 (unknown origin); format: protein-complex assay
T1 sequence (P48549 whole entry): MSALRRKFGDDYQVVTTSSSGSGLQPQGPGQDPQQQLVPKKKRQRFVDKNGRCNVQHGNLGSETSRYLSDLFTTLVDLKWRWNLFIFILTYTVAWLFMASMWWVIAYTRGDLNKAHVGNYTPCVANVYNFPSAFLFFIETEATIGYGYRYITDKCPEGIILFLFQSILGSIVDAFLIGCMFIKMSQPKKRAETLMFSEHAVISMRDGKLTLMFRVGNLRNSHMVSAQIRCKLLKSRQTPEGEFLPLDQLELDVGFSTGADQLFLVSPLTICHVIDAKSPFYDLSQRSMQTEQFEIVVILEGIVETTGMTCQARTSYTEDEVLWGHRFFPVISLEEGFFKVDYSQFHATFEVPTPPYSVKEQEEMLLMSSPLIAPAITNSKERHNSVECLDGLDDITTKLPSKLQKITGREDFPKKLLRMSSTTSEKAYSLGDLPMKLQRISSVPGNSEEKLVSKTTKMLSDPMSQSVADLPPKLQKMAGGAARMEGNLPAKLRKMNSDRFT
T1 sequence (P48051 whole entry): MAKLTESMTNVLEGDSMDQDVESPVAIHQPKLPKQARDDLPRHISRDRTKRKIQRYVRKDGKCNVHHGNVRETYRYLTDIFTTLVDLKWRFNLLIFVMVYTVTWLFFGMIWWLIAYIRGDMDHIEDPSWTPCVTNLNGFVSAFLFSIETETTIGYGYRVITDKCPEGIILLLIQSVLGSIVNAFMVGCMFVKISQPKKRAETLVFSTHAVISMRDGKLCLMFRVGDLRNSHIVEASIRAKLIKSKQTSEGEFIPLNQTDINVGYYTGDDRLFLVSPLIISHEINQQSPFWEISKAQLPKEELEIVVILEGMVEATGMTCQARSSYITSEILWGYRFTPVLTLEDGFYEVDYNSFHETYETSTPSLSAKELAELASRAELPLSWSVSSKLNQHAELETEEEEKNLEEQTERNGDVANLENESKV

[2] = molecular target: Kir3.1/Kir3.4 (Homo sapiens) (UniProt P48549+P48544); assay: Inhibition of GIRK1/4 (unknown origin) relative to SCH3320; format: protein-complex assay; set-up: concentration or dose not given beside the values; conditions: concentration not given here
[3] = molecular target: Kir3.1/Kir3.2 (Homo sapiens) (UniProt P48549+P48051); assay: Inhibition of GIRK1/2 (unknown origin) relative to SCH3320; format: protein-complex assay; set-up: concentration or dose not given beside the values; conditions: concentration not given here
Kir3.1/Kir3.4 = molecular target: T2, Kir3.1/Kir3.4 (Homo sapiens, UniProt P48544+P48549); assay: Inhibition of GIRK1/4 (unknown origin); format: protein-complex assay
T2 sequence (P48549 whole entry): T1 sequence (P48549 whole entry)
T2 sequence (P48544 whole entry): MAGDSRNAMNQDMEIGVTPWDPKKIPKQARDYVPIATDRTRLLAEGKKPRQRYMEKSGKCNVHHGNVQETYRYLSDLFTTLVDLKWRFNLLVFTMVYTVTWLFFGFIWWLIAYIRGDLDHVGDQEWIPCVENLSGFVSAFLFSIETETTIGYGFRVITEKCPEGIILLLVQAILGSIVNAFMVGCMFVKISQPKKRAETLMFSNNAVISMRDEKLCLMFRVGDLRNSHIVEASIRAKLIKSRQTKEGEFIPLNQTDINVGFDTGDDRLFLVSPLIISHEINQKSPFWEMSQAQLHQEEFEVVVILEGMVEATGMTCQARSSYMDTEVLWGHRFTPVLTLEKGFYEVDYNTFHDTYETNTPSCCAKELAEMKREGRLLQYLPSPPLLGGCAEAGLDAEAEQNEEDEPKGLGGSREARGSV

[4] = molecular target: Kir3.2/Kir3.3 (Homo sapiens) (UniProt P48051+Q92806); assay: Activation of GIRK2/3 (unknown origin); format: protein-complex assay
[5] = molecular target: T3, G protein-activated inward rectifier potassium channel 2 (Homo sapiens) (UniProt P48051); assay: Activation of GIRK2 (unknown origin)
T3 sequence (whole entry): T1 sequence (P48051 whole entry)

Kir3.1/Kir3.2 [6] = molecular target: T1, Kir3.1/Kir3.2; assay: Activation of GIRK1/2 (unknown origin); format: protein-complex assay

| SMILES | IC50 (Kir3.1/Kir3.2 [1]) [µM] | inhibition [2] [%] | inhibition [3] [%] | IC50 (Kir3.1/Kir3.4) [µM] | Activity [4] | Activity [5] | EC50 (Kir3.1/Kir3.2 [6]) [µM] |
| --- | --- | --- | --- | --- | --- | --- | --- |
| Cc1ccc(NC(=O)Nc2cc(C(C)C)nn2-c2ccccc2)cc1 | 3.9 | 62 | 100 | 1.8 |  |  |  |
| O=C(Nc1cccc(C(F)(F)F)c1)Nc1cc(CC2CC2)nn1-c1ccccc1 | 0.54 | 45 | 88 | 0.25 |  |  |  |
| O=C(Nc1ccc(F)c(F)c1)Nc1cc(C(F)(F)F)nn1-c1ccccc1 |  |  |  |  | inactive | inactive |  |
| O=C(Nc1cccc(F)c1)Nc1cc(CC2CC2)nn1-c1ccccc1 | 0.45 | 72 | 75 | 0.18 |  |  |  |
| Cc1cccc(NC(=O)Nc2cc(CC3CC3)nn2-c2ccccc2)c1 | 0.52 | 47 | 83 | 0.25 |  |  |  |
| O=C(Nc1cccc(C(F)(F)F)c1)Nc1cc(C2CCC2)nn1-c1ccccc1 | 1.3 | 84 | 65 | 0.69 |  |  |  |
| O=C(Nc1ccc(F)c(F)c1)Nc1cc(C2CCCC2)nn1-c1ccccc1 | 5.1 | 88 | 85 | 4.1 | inactive | inactive |  |
| O=C(Nc1ccc(F)c(Cl)c1)Nc1cc(CC2CC2)nn1-c1ccccc1 | 0.81 | 70 | 87 | 0.31 |  |  |  |
| CC(C)c1cc(NC(=O)Nc2ccc(F)c(F)c2)n(-c2ccccc2)n1 | 2 | 150 | 136 | 1.4 | inactive | inactive |  |

More lines, now with the values ahead:

| IC50 (Kir3.1/Kir3.2 [1]) [µM] | inhibition [2] [%] | inhibition [3] [%] | IC50 (Kir3.1/Kir3.4) [µM] | Activity [4] | Activity [5] | EC50 (Kir3.1/Kir3.2 [6]) [µM] | SMILES |
| --- | --- | --- | --- | --- | --- | --- | --- |
| 1.4 | 89 | 64 | 0.48 |  |  |  | O=C(Nc1cccc(Cl)c1)Nc1cc(C2CCC2)nn1-c1ccccc1 |
| 0.85 |  | 80 | > 30 |  |  |  | Cc1cccc(NC(=O)Nc2cc(C3CC3)nn2-c2ccccc2)c1 |
| 2.1 | 100 | 62 | 1.3 |  |  |  | CC(C)c1cc(NC(=O)Nc2cccc(C(F)(F)F)c2)n(-c2ccccc2)n1 |
|  |  |  |  | inactive | inactive |  | O=C(Nc1ccc(F)c(F)c1)Nc1cc(C2CCC2)nn1-c1ccccc1 |
| 0.63 | 72 | 76 | 0.34 |  |  |  | O=C(Nc1cccc(Cl)c1)Nc1cc(CC2CC2)nn1-c1ccccc1 |
| 2.6 | 67 | 93 | 0.85 |  |  |  | Cc1cccc(NC(=O)Nc2cc(C(C)C)nn2-c2ccccc2)c1 |
| 0.95 |  | 86 | > 30 |  |  |  | CSc1cccc(NC(=O)Nc2cc(C3CC3)nn2-c2ccccc2)c1 |
| 0.65 | 67 | 95 | 0.56 | inactive | inactive |  | O=C(Nc1ccc(F)c(F)c1)Nc1cc(CC2CC2)nn1-c1ccccc1 |
| 1.9 | 69 | 51 | 0.72 |  |  |  | O=C(Nc1cccc(Br)c1)Nc1cc(C2CCC2)nn1-c1ccccc1 |
| 1.9 | 69 | 70 | 0.61 |  |  |  | O=C(Nc1ccc(F)c(Cl)c1)Nc1cc(C2CCC2)nn1-c1ccccc1 |
| 2.1 | 70 | 77 | 0.78 |  |  |  | CC(C)c1cc(NC(=O)Nc2cccc(F)c2)n(-c2ccccc2)n1 |
| 1.2 |  | 60 | > 30 |  |  |  | O=C(Nc1cccc(F)c1)Nc1cc(C2CC2)nn1-c1ccccc1 |
|  |  |  |  | inactive | inactive | > 30 | O=C(Nc1ccc(F)c(F)c1)Nc1cc(-c2ccccc2)nn1-c1ccccc1 |
| 0.64 | 54 | 80 | 0.27 |  |  |  | O=C(Nc1ccc(F)cc1)Nc1cc(CC2CC2)nn1-c1ccccc1 |

From ChEMBL document CHEMBL2406941, “Discovery of 'molecular switches' within a GIRK activator scaffold that afford selective GIRK inhibitors” (Bioorg Med Chem Lett, 2013)
